Data reported in PubChem BioAssay (NCI).
Where “and” joins values, the source holds several entries; their conditions need not be identical. Equal entries are not always repeated.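 These data come from cells grown in 96-well plates and exposed to compound for 48 hours at five concentrations. GI50 is the concentration that inhibits growth by half. Definition used: TGI = concentration required for complete inhibition of growth.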

Columns and labels:
Assay in all cases: growth of human tumour cells (NCI), 48 h
UO-31 renal = test system: UO-31 renal
SK-OV-3 ovarian = test system: SK-OV-3 ovarian
LOX IMVI melanoma = test system: LOX IMVI melanoma
SF-539 CNS = test system: SF-539 CNS
CCRF-CEM leukemia = test system: CCRF-CEM leukemia
SK-MEL-2 melanoma = test system: SK-MEL-2 melanoma
M14 melanoma = test system: M14 melanoma
SNB-75 CNS = test system: SNB-75 CNS
MOLT-4 leukemia = test system: MOLT-4 leukemia
T-47D breast = test system: T-47D breast

| SMILES | TGI (UO-31 renal) | TGI (SK-OV-3 ovarian) | TGI (LOX IMVI melanoma) | TGI (SF-539 CNS) | TGI (CCRF-CEM leukemia) | TGI (SK-MEL-2 melanoma) | TGI (M14 melanoma) | TGI (SNB-75 CNS) | TGI (MOLT-4 leukemia) | TGI (T-47D breast) | GI50 (UO-31 renal) | GI50 (SK-OV-3 ovarian) | GI50 (LOX IMVI melanoma) | GI50 (SF-539 CNS) | GI50 (CCRF-CEM leukemia) | GI50 (SK-MEL-2 melanoma) | GI50 (SNB-75 CNS) |
| --- | --- | --- | --- | --- | --- | --- | --- | --- | --- | --- | --- | --- | --- | --- | --- | --- | --- |
| N=C1N=C(N)c2cc3c(cc21)SCCSCCCSCCS3 | > 100 µM | 41.1 µM | 17.6 µM | > 54.6 µM | > 25.9 µM | 37.7 µM | 35.7 µM | 46.9 µM | 32.5 µM | 69.1 µM | – | – | – | – | – | – | – |
| Cc1cc(=O)c2c(O)c3c(O)cc(O)c4c5c(O)cc(O)c6c(O)c7c(=O)cc(C)c8c1c2c(c34)c(c65)c78 | > 100 µM and 65.9 µM | > 100 µM and 41.9 µM | > 100 µM | > 100 µM | > 100 µM | > 100 µM and 94 µM | > 100 µM | > 100 µM | > 100 µM and 24.2 µM | > 100 µM | > 100 µM and 25.5 µM | > 100 µM and 21.6 µM | > 100 µM and 35.4 µM | > 100 µM | > 100 µM and 22.2 µM | > 100 µM and 37.3 µM | > 100 µM and 32.3 µM |
| Cc1ccc([N+](=O)[O-])cc1S(=O)(=O)Nc1ccc(C2=NN(c3ccc([N+](=O)[O-])cc3[N+](=O)[O-])C(c3ccccc3O)C2)cc1 (configuration not stated) | > 100 µM | > 100 µM | > 100 µM | > 100 µM | > 100 µM | 59.4 µM | > 100 µM | > 100 µM | > 100 µM | > 100 µM | – | – | – | – | – | – | – |
| Cc1ccccc1NC(=S)N=Nc1c(O)[nH]c2ccccc12 | > 100 µM | > 100 µM | > 100 µM | > 100 µM | > 100 µM | > 100 µM | > 100 µM | > 100 µM | > 100 µM | > 100 µM | – | – | – | – | – | – | – |
| CC(=O)O[C@H]1CC[C@@]2(C)C(=CC[C@@H]3[C@@H]2CC[C@]2(C)c4nc(N)c(C#N)cc4C[C@@H]32)C1 | > 100 µM | > 83.8 µM | > 100 µM | 64 µM | > 89.5 µM | > 100 µM | > 100 µM | 23.6 µM | > 100 µM | > 96.6 µM | – | – | – | – | – | – | – |
| C[C@H](CC[C@@H](O)C(C)(C)O)[C@H]1CC[C@@]2(C)[C@@H]3CC=C4[C@@H](CC[C@H](OC5OC(CO)C(O)C(O)C5O)C4(C)C)[C@]3(C)C(=O)C[C@]12C (some centres not stated) | > 100 µM | > 100 µM | > 100 µM | > 100 µM | 70.9 µM | 69.6 µM | 92.1 µM | > 100 µM | > 100 µM | > 100 µM | – | – | – | – | – | – | – |
| CC1(C)Oc2ccc(Cl)cc2C12CC2 | 30.8 µM | 44.7 µM | 30.9 µM | > 100 µM | > 100 µM | 33.4 µM | 35.5 µM | 32.3 µM | 44.1 µM | 73.8 µM | – | – | – | – | – | – | – |
